{"source": "the SangsterLogP compilation"}
{"smiles": "Cc1cc(C)c2c(c1)NC(=O)C2OC(=O)Cc1ccccc1", "note": "(stereo not given)", "values": [{"measurement": "logP", "result": 3.22}]}
{"smiles": "CCCCC1(O)C(=O)Nc2ccccc2C1=CC(=O)O", "note": "(stereo not given)", "values": [{"measurement": "logP", "result": 2.18}]}
{"smiles": "CCOC(=O)C=C1c2ccccc2N(C)C(=O)C1(O)Cc1ccccc1", "note": "(stereo not given)", "values": [{"measurement": "logP", "result": 4.75}]}
{"smiles": "CCCCC1(O)C(=O)Nc2ccccc2C1=CC(=O)OCC", "note": "(stereo not given)", "values": [{"measurement": "logP", "result": 4.47}]}
{"smiles": "CCCCC1(O)C(=O)N(C)c2ccccc2C1=CC(=O)OCC", "note": "(stereo not given)", "values": [{"measurement": "logP", "result": 4.21}]}
{"smiles": "O=C(O)C=C1c2ccccc2N(c2ccccc2)C(=O)C1(O)Cc1ccccc1", "note": "(stereo not given)", "values": [{"measurement": "logP", "result": 2.57}]}
{"smiles": "O=C(O)C=C1c2ccccc2N(c2ccccc2)C(=O)C1(O)c1ccccc1", "note": "(stereo not given)", "values": [{"measurement": "logP", "result": 2.83}]}
{"smiles": "Cc1ccc(Cl)c2c1NC(=O)C2OC(=O)Cc1ccccc1", "note": "(stereo not given)", "values": [{"measurement": "logP", "result": 3.19}]}
{"smiles": "CN1C(=O)C(O)(Cc2ccccc2)C(=CC(=O)O)c2ccccc21", "note": "(stereo not given)", "values": [{"measurement": "logP", "result": 2.31}]}
{"smiles": "CCCCC1(O)C(=O)N(c2ccccc2)c2ccccc2C1=CC(=O)O", "note": "(stereo not given)", "values": [{"measurement": "logP", "result": 2.44}]}
{"smiles": "CCCCC(=O)OC1C(=O)Nc2cc(C)cc(C)c21", "note": "(stereo not given)", "values": [{"measurement": "logP", "result": 3.19}]}
{"smiles": "CCCCC1(O)C(=O)N(C)c2ccccc2C1=CC(=O)O", "note": "(stereo not given)", "values": [{"measurement": "logP", "result": 2.23}]}
{"smiles": "CCCCC(=O)OC1C(=O)Nc2c(C)ccc(C)c21", "note": "(stereo not given)", "values": [{"measurement": "logP", "result": 3.2}]}
{"smiles": "CCOC(=O)C=C1c2ccccc2NC(=O)C1(O)Cc1ccccc1", "note": "(stereo not given)", "values": [{"measurement": "logP", "result": 4.16}]}
{"smiles": "O=C(O)C=C1c2ccccc2NC(=O)C1(O)Cc1ccccc1", "note": "(stereo not given)", "values": [{"measurement": "logP", "result": 2.27}]}
